Experimental data reported in patent US5041581A (priority 1986, dated 1991).

Key:
L1210 mouse leukemia = assay: In vivo antitumor activity against L1210 mouse leukemia (L1210-BDF1 mouse model); set-up: species or system BDF1 mice; settings: for Optimal dose: L1210 ip/ip, single dose
Method: BDF1 mice were purchased from Charles River (Wilmington, MA). Groups of 6-8 mice weighing 18-22 gm were inoculated ip with 1×10^6 L1210 leukemia cells on day 0. L1210 cells were kept in DBA2 mice were weekly passages between the different experiments. All L-PT preparations were injected ip in volumes of 0.1 to 0.3 ml 24 hours after tumor inoculation. Two different schedules of administration were used: a single injection on day 1 or an injection on days 1, 5 and 9 (multiple). […] Clinical behavior and survival times were monitored until all animals had died. Results were expressed as % T/C (median survival time of treated mice/median survival time of control mice ×100) and number of long-term survivors. Mice living more than 30 days and more than 60 days were considered to be long-term survivors for the single and multiple injection schedule respectively. All L-PT preparations tested for antitumor activity were prepared under sterile conditions on the same day of the experiment.
The antitumor activity against L-1210 murine leukemia of the different L-PT analogs was assessed in an L-1210-BDF, mouse model (tumor inoculation day 0, treatment day 1, ip) as described earlier herein.
These liposome-encapsulated compounds were tested to determine their optimal dose and effectiveness as inhibitors of in vivo tumor growth as described in Example 12.

[1] = Stability of L-PT in 0.9% saline at 4° C. for 14 days; format: physicochemical; settings: for Stability % (PT remaining in the liposomes): 0.9% saline, 4° C., DMPC:DMPG 7:3; for stability compared with Pt cyclopentenecarboxylato-racemic-DACH, in words: saline
Method: The stability of the different liposome-PT (L-PT) preparations in 0.9% NaCl solution at 4° C., and 50% human (AB) serum in 0.9% NaCl solution at 37° C. was determined using the following formula: [formula]
The EE values used in the stability determinations were obtained by measuring PT in the supernatants by UV spectrophotometry (0.9% NaCl solution) or x-ray fluorescence (50% human AB serum). The stability in 0.9% NaCl solution was determined up to 14 days after the initial preparation. In addition, the L-PT preparations were observed microscopically on day 14 to check the morphology of the vesicles. The stability in 50% human AB serum was determined up to 18 hours after incubation.
Preparations were suspended in 0.9% saline and incubated at 4° C. for 14 days. The liposome compositions were observed by light microscopy and the amount of free PT in the saline determined. […] Free PT was determined and stability was calculated as the percentage PT remaining in the liposomes.

[2] = Encapsulation efficiency of platinum complexes in multilamellar liposomes (UV spectrophotometry / x-ray fluorescence); format: physicochemical; settings: for Encapsulation Efficiency: lipophilic cisplatin analogues incorporated in liposomes (Table 12); for % Encapsulation Efficiency: liposomes DMPC:DMPG 7:3, mean of at least three experiments
Method: Multilamellar lipid vesicles (MLV) or liposomes containing incorporated platinum complexes (PT) of the above descriptions were prepared as previously described for other compounds (Lopez-Berestein et al (4)(1984) Clin. Exp. Metastasis V 2 pp 127-137 and Lopez-Berestein et al (1983) J Inf Dis V 147 pp 937-945). In brief, chloroform solutions of lipids (at the desired molar ratio) and PT were mixed at a lipid-PT ratio of 15:1 and the chloroform was evaporated in a rotary evaporator (Buchi, Brinkmann Instruments, Westbury, NY). The dried lipid film obtained, containing PT, was then dispersed with an aqueous solution (0.9% NaCl in water) by vigorous handshaking. The suspension was subsequently centrifuged at 30,000 ×g for 45 minutes, the supernatant was discarded, and the pellet containing PT was resuspended in 0.9% NaCl solution.
Elemental platinum (Pt) was determined in the liposome suspension and the pellet by x-ray fluorescence as previously reported (Seifert et al (1979) Proc. Amer. Ass'n. Cancer Res. V 20 p. 168) in the Department of Analytical Chemistry, The University of Texas Medical School at Houston, TX. The amount of platinum complex (PT) was determined in the supernatant by ultraviolet (UV) spectrophotometry using a wavelength of 224 nm. The EE was initially calculated with the two following formulas:
1. EE =Pt in pellet/total Pt in the initial liposome suspension
2. EE =Total Pt initially added - Pt in supernatant/total Pt initially added
The encapsulation efficiency for Pt-cyclopentenecarboxylato racemic-DACH was 66%. […] The encapsulation efficiency for Pt-neodecanoato-racemic-DACH, Pt-neodecanoatotrans-RR-DACH, Pt-n-decyliminodiacetato racemic DACH complexes are presented in Table I, shown below.
The compounds prepared in Examples 14-19 were tested for their efficiency of encapulation in liposomes by the methods described in Example 6. These liposome-encapsulated compounds were tested to determine their optimal dose and effectiveness as inhibitors of in vivo tumor growth as described in Example 12. The data in Table 12 reveal the resultant measurements.

[3] = Solubility in organic solvents and water; format: physicochemical; settings: for solubility in methanol and chloroform, in words: chloroform (and other organic solvents where stated)
[4] = Nephrotoxicity: blood urea nitrogen (BUN) 96 hours after ip LD50 dose; format: in vivo, CD1 Swiss mice; settings: for BUN at 96 hours: ip single injection at LD50 dose
Method: All L-PT preparations tested for toxicity were prepared under sterile conditions on the same day of the experiments.

[5] = Acute toxicity (LD10, LD50, LD90) in CD-1 Swiss mice; format: in vivo
Method: Toxicology studies were carried out in 6-8 weeks old CD-1 Swiss mice weighing 22-25 gm and purchased from The University of Texas Science Park (Bastrop, TX). Free PT in suspension in hydroxypropylcellulose, DMPG, DMPG-PT, DMPC:DMPG 7:3 and DMPC:DMPG 7:3-PT were administered intraperitoneally (ip) in volumes ranging between 0.1 and 0.3 ml. DMPC:DMPG 7:3-PT was also administered intravenously (iv) in one single injection or in 3 daily injections. The clinical behavior and the survival times were monitored on a daily basis.

L1210 cells = assay: In vitro growth inhibition of L1210 leukemic cells (96 hours, Coulter Counter); format: cell-based, murine; settings: Exp. 1; 5760 min
Method: Four ml of cell suspension were added to culture tubes and the appropriate concentration of free PT or L-PT was added (from 0.01 micro g/ml to 10 micro g/ml final concentration). After 96 hours, the cell concentration of control and experimental cultures were calculated with a Coulter Counter (Coulter Electronics, Hialeah, FLA) and the percent inhibition calculated. The following preparations were tested: free PT, DMPG, DMPC:DMPG 7:3, DMPG-PT and DMPC:DMPG 7:3-PT.

[6] = 25 mg/kg ip day 1, liposomes DMPC:DMPG 7:3 (Table 8)
[7] = L1210 ip/ip single dose at the optimal dose, incorporated in liposomes (Table 12)
[8] = incorporated in liposomes (Table 12)

Compound	% T/C (L1210 mouse leukemia; [6])	Stability % (PT remaining in the liposomes) [1]	% T/C (L1210 mouse leukemia; [7])	Optimal dose (L1210 mouse leukemia; [8])	Encapsulation Efficiency [2]	solubility in methanol and chloroform, in words [3]	solubility in water, in words [3]	further results
O=C([O][Pt]1([O]C(=O)C2=CCCC2)[NH][C@H]2CCCC[C@@H]2[NH]1)C1=CCCC1 [Pt-cyclopentenecarboxylato trans-SS-DACH]	155%							
O=C([O][Pt]1([O]C(=O)C2=CCCC2)[NH][C@@H]2CCCC[C@H]2[NH]1)C1=CCCC1 [Pt-cyclopentenecarboxylato trans-RR-DACH, cis-bis-cyclopentenecarboxylato-1,2-trans-RR-DACH-Pt (II)-3H2 O]	187%	94%						stability compared with Pt cyclopentenecarboxylato-racemic-DACH, in words [1]: greater stability
CCCCCCCCCCN1CC(=O)[O][Pt]2([NH]C3CCCCC3[NH]2)[O]C(=O)C1 (mixture of isomers) [Pt-N-decyliminodiaceto-racemic-DACH mixture, cis-bis-n-decyliminodiaceto-DACH-platinum (II)]	150%	100%						
Cis-bis-neodecanoato-trans-R,R-1,2-diaminocyclohexane-platinum			170%	25 mg/kg	93%			
cis-bis-neodecanoato-bis-diamine-platinum (II)			200%	50 mg/kg	95%	highly soluble	insoluble	
O=C([O][Pt]1([O]C(=O)C2=CCCC2)[NH]C2CCCCC2[NH]1)C1=CCCC1 (mixture of isomers) [Pt-cyclopentenecarboxylato racemic-DACH mixture, cis-bis-cyclopentenecarboxylato-1,2-DACH-platinum (II)]	213%	89%						BUN at 96 hours ([4]; listed as Free PT): 34.4 ± 9.6 mg %; BUN at 96 hours ([4]; listed as PT in suspension in hydroxypropylcellulose): 34.4±9.6 mg %; BUN elevation, in words ([4]; ip, LD50 dose, 96 hours): no significant BUN elevations; LD50 Dose ([5]; ip single injection (Table 4, CD1 mice), 20160 min): 91 mg/kg; LD10 ([5]; ip × 1): 61 mg/kg; LD90 ([5]; ip × 1): 125 mg/kg; LD50 ([5]; ip × 1, 20160 min): 91 mg/kg; % T/C (L1210 mouse leukemia; 6.25 mg/kg × 3 ip, days 1, 5 and 9): 168%; % T/C, mean (L1210 mouse leukemia; 12.5 mg/kg and 25 mg/kg, single ip dose, means of three experiments): 162%; % T/C (L1210 mouse leukemia; 12.5 mg/kg ip day 1, Exp. 1): 173%; % T/C (L1210 mouse leukemia; 12.5 mg/kg ip day 1, Exp. 2): 136%; % T/C (L1210 mouse leukemia; 12.5 mg/kg ip day 1, Exp. 3): 179%; % T/C (L1210 mouse leukemia; 12.5 mg/kg × 3 ip, days 1, 5 and 9): 284%; % T/C (L1210 mouse leukemia; 25 mg/kg ip day 1, Exp. 3): 168%; % T/C (L1210 mouse leukemia; 25 mg/kg × 3 ip, days 1, 5 and 9): 158%; ID50 (L1210 cells): 1.3 micro g/ml
cis-bis-neodecanoato-bis-isopropylamine-platinum (II)			150%	100 mg/kg	87%	highly soluble	insoluble	
CCCCCCCCCC(=O)[O][Pt]1([O]C(=O)CCCCCCCCC)[NH][C@@H]2CCCC[C@H]2[NH]1 [cis-bis-decanoato-trans-R,R-1,2-diaminocyclohexane-platinum II]			187%	50 mg/kg				
cis-bis-neodecanoatoDACH-platinum II [Pt-neodecanoato-racemic DACH-mixture]		100%				highly soluble	insoluble	stability compared with Pt cyclopentenecarboxylato-racemic-DACH, in words [1]: greater stability; % T/C (L1210 mouse leukemia; 50 mg/kg ip day 1, liposomes DMPC:DMPG 7:3 (Table 8)): 187%; % Encapsulation Efficiency [2]: 99%
cis-bis-neodecanoato-ethylenediamine-platinum(II)			144%	75 mg/kg				
CCCCCCCCCCN1CC(=O)[O][Pt]2([NH][C@@H]3CCCC[C@H]3[NH]2)[O]C(=O)C1 [Pt-N-decyliminodiacetato-trans-RR-DACH, cis-bis-n-decyliminodiacetato-trans-RR-DACH-Pt (II)]	162%	100%						
cis-bis-neodecanoato-RR-DACH-Platinum (II) [Pt-neodecanoato-trans-RR-DACH]	175%	99%						% Encapsulation Efficiency [2]: 99%
cis-bis-neodecanoato-bis-cyclohexylamine-platinum (II)			125%	100 mg/kg	89%	highly soluble	insoluble	
